# Measured values: PMC11266321 (EJNMMI Radiopharmacy and Chemistry, 2024)
# “And” between values parts separate entries of the source, which are not always exact repeats. Equal values may be shown once.
# Legend:
# [1] = Radiation dosimetry for human adults estimated from mouse data (OLINDA/EXM)
# Description: (§1) [^11C]MMP (8.1 MBq/17 pmol) was injected intravenously into 8-week-old male ddY mice (37.8–42.4 g). The tracer-injected mice were housed individually in filter-paper-lined animal-rearing cages until the time of euthanasia. Mice were euthanized by cervical dislocation at 1, 5, 15, 30, 60, and 90 min after injection (n = 4 each). Blood was collected by heart puncture, and the tissues were harvested. Radioactivity excreted into urine was recovered from the cage floor and by cystocentesis from the urinary bladder. The samples were measured for ^11C radioactivity with an auto-gamma counter (Hidex-AMG, Turku, Finland) and weighed. Tissue uptake of ^11C was expressed as the percentage of injected dose per organ (%ID/organ) or the percentage of injected dose per gram of tissue (%ID/g). The tissue distribution data were extrapolated to an adult male phantom using the %kg/g method (Blau [1975]). The radiation absorbed dose and effective dose for human adults were estimated using OLINDA/EXM software (Vanderbilt University, Nashville, TN) (Stabin et al. [2005]). Effective dose was estimated using the risk-weighting factor of ICRP Publication 103 (ICRP [2007]).
# [2] = pH 5.36
# [3] = Tissue distribution of radioactivity in mice; type: in vivo, mouse; details: mean ± SD n = 4
# Description: as §1
# [4] = human adults, estimated from mouse data
smiles,measurement,setting,value
"CC(C)NC(C)Cc1ccc([11CH3])cc1 (centres unmarked) [[^11C]MMP, N-isopropyl-4-[^11C]methylamphetamine]",Effective dose,[1]; administration of 740 MBq,4.0 mSv
same,"highest absorbed dose, urinary bladder wall",[1]; administration of 740 MBq,42.6 mGy
same,"Absorbed dose, Adrenal",[1]; [4],2.21 µGy/MBq
same,"Absorbed dose, Brain",[1]; [4],3.67 µGy/MBq
same,"Absorbed dose, Breast",[1]; [4],1.34 µGy/MBq
same,"Absorbed dose, Gallbladder wall",[1]; [4],2.43 µGy/MBq
same,"Absorbed dose, Heart wall",[1]; [4],3.02 µGy/MBq
same,"Absorbed dose, Kidney",[1]; [4],8.6 µGy/MBq and 8.56 µGy/MBq
same,"Absorbed dose, Liver",[1]; [4],4.78 µGy/MBq
same,"Absorbed dose, Lower large intestine wall",[1]; [4],4.03 µGy/MBq
same,"Absorbed dose, Lungs",[1]; [4],7.3 µGy/MBq and 7.29 µGy/MBq
same,"Absorbed dose, Muscle",[1]; [4],2.70 µGy/MBq
same,"Absorbed dose, Osteogenic cells",[1]; [4],2.41 µGy/MBq
same,"Absorbed dose, Ovaries",[1]; [4],3.09 µGy/MBq
same,"Absorbed dose, Pancreas",[1]; [4],5.5 µGy/MBq and 5.53 µGy/MBq
same,"Absorbed dose, Red marrow",[1]; [4],2.12 µGy/MBq
same,"Absorbed dose, Skin",[1]; [4],1.29 µGy/MBq
same,"Absorbed dose, Small intestine",[1]; [4],4.51 µGy/MBq
same,"Absorbed dose, Spleen",[1]; [4],3.57 µGy/MBq
same,"Absorbed dose, Stomach wall",[1]; [4],3.59 µGy/MBq
same,"Absorbed dose, Testes",[1]; [4],2.66 µGy/MBq
same,"Absorbed dose, Thymus",[1]; [4],1.70 µGy/MBq
same,"Absorbed dose, Thyroid",[1]; [4],1.62 µGy/MBq
same,"Absorbed dose, Total body",[1]; [4],2.65 µGy/MBq
same,"Absorbed dose, Upper large intestine wall",[1]; [4],3.32 µGy/MBq
same,"Absorbed dose, Urinary bladder wall",[1]; [4],57.6 µGy/MBq
same,"Absorbed dose, Uterus",[1]; [4],4.51 µGy/MBq
same,"Radiochemical purity (stability test), mean of three runs",[2],99.7 ± 0.2%
same,"Injected dose/g tissue (%), Blood",[3]; 1 min after i.v. injection,1.40 ± 0.24 %ID/g
same,"Injected dose/g tissue (%), Bone",[3]; 1 min after i.v. injection,2.21 ± 0.54 %ID/g
same,"Injected dose/g tissue (%), Brain",[3]; 1 min after i.v. injection,5.75 ± 0.42 %ID/g
same,"Injected dose/g tissue (%), Heart",[3]; 1 min after i.v. injection,8.23 ± 1.30 %ID/g
same,"Injected dose/g tissue (%), Kidney",[3]; 1 min after i.v. injection,12.93 ± 7.10 %ID/g
same,"Injected dose/g tissue (%), Large intestine",[3]; 1 min after i.v. injection,1.92 ± 0.95 %ID/g
same,"Injected dose/g tissue (%), Liver",[3]; 1 min after i.v. injection,1.56 ± 0.87 %ID/g
same,"Injected dose/g tissue (%), Lung",[3]; 1 min after i.v. injection,28 %ID/g and 27.53 ± 4.66 %ID/g
same,"Injected dose/g tissue (%), Muscle",[3]; 1 min after i.v. injection,1.77 ± 0.86 %ID/g
same,"Injected dose/g tissue (%), Pancreas",[3]; 1 min after i.v. injection,3.96 ± 1.02 %ID/g
same,"Injected dose/g tissue (%), Small intestine",[3]; 1 min after i.v. injection,1.49 ± 0.84 %ID/g
same,"Injected dose/g tissue (%), Spleen",[3]; 1 min after i.v. injection,1.46 ± 0.42 %ID/g
same,"Injected dose/g tissue (%), Stomach",[3]; 1 min after i.v. injection,2.06 ± 1.30 %ID/g
same,"Injected dose/g tissue (%), Testis",[3]; 1 min after i.v. injection,0.96 ± 0.24 %ID/g
same,"Injected dose/organ (%), Bladder",[3]; 1 min after i.v. injection,0.07 ± 0.05 %ID/organ
same,"Injected dose/organ (%), Bladder + urine",[3]; 1 min after i.v. injection,0.07 ± 0.05 %ID/organ
same,"Injected dose/organ (%), Brain",[3]; 1 min after i.v. injection,2.28 ± 0.25 %ID/organ
same,"Injected dose/organ (%), Heart",[3]; 1 min after i.v. injection,1.56 ± 0.27 %ID/organ
same,"Injected dose/organ (%), Kidney",[3]; 1 min after i.v. injection,7.4 %ID/organ and 7.44 ± 4.00 %ID/organ
same,"Injected dose/organ (%), Large intestine",[3]; 1 min after i.v. injection,2.47 ± 1.19 %ID/organ
same,"Injected dose/organ (%), Liver",[3]; 1 min after i.v. injection,2.63 ± 1.23 %ID/organ
same,"Injected dose/organ (%), Lung",[3]; 1 min after i.v. injection,5.54 ± 0.95 %ID/organ
same,"Injected dose/organ (%), Pancreas",[3]; 1 min after i.v. injection,0.76 ± 0.23 %ID/organ
same,"Injected dose/organ (%), Small intestine",[3]; 1 min after i.v. injection,2.74 ± 1.46 %ID/organ
same,"Injected dose/organ (%), Spleen",[3]; 1 min after i.v. injection,0.17 ± 0.07 %ID/organ
same,"Injected dose/organ (%), Stomach",[3]; 1 min after i.v. injection,1.59 ± 1.06 %ID/organ
same,"Injected dose/organ (%), Testis",[3]; 1 min after i.v. injection,0.24 ± 0.03 %ID/organ
same,"Injected dose/organ (%), Urine",[3]; 1 min after i.v. injection,0.00 ± 0.00 %ID/organ
same,"Injected dose/g tissue (%), Blood",[3]; 5 min after i.v. injection,1.10 ± 0.14 %ID/g
same,"Injected dose/g tissue (%), Bone",[3]; 5 min after i.v. injection,2.20 ± 0.30 %ID/g
same,"Injected dose/g tissue (%), Brain",[3]; 5 min after i.v. injection,6.87 ± 0.62 %ID/g
same,"Injected dose/g tissue (%), Heart",[3]; 5 min after i.v. injection,3.53 ± 0.21 %ID/g
same,"Injected dose/g tissue (%), Kidney",[3]; 5 min after i.v. injection,16.26 ± 1.85 %ID/g
same,"Injected dose/g tissue (%), Large intestine",[3]; 5 min after i.v. injection,2.36 ± 0.41 %ID/g
same,"Injected dose/g tissue (%), Liver",[3]; 5 min after i.v. injection,4.30 ± 0.84 %ID/g
same,"Injected dose/g tissue (%), Lung",[3]; 5 min after i.v. injection,21.20 ± 1.81 %ID/g
same,"Injected dose/g tissue (%), Muscle",[3]; 5 min after i.v. injection,2.14 ± 0.14 %ID/g
same,"Injected dose/g tissue (%), Pancreas",[3]; 5 min after i.v. injection,8.21 ± 0.70 %ID/g
same,"Injected dose/g tissue (%), Small intestine",[3]; 5 min after i.v. injection,3.65 ± 0.21 %ID/g
same,"Injected dose/g tissue (%), Spleen",[3]; 5 min after i.v. injection,5.09 ± 0.59 %ID/g
same,"Injected dose/g tissue (%), Stomach",[3]; 5 min after i.v. injection,3.24 ± 1.94 %ID/g
same,"Injected dose/g tissue (%), Testis",[3]; 5 min after i.v. injection,1.26 ± 0.25 %ID/g
same,"Injected dose/organ (%), Bladder",[3]; 5 min after i.v. injection,0.09 ± 0.03 %ID/organ
same,"Injected dose/organ (%), Bladder + urine",[3]; 5 min after i.v. injection,3.51 ± 1.80 %ID/organ
same,"Injected dose/organ (%), Brain",[3]; 5 min after i.v. injection,2.68 ± 0.33 %ID/organ
same,"Injected dose/organ (%), Heart",[3]; 5 min after i.v. injection,0.63 ± 0.05 %ID/organ
same,"Injected dose/organ (%), Kidney",[3]; 5 min after i.v. injection,9.5 %ID/organ and 9.54 ± 0.98 %ID/organ
same,"Injected dose/organ (%), Large intestine",[3]; 5 min after i.v. injection,2.7 %ID/organ and 2.68 ± 0.45 %ID/organ
same,"Injected dose/organ (%), Liver",[3]; 5 min after i.v. injection,9.53 ± 2.41 %ID/organ
same,"Injected dose/organ (%), Lung",[3]; 5 min after i.v. injection,3.21 ± 0.65 %ID/organ
same,"Injected dose/organ (%), Pancreas",[3]; 5 min after i.v. injection,1.70 ± 0.23 %ID/organ
same,"Injected dose/organ (%), Small intestine",[3]; 5 min after i.v. injection,6.8 %ID/organ and 6.77 ± 0.37 %ID/organ
same,"Injected dose/organ (%), Spleen",[3]; 5 min after i.v. injection,0.57 ± 0.05 %ID/organ
same,"Injected dose/organ (%), Stomach",[3]; 5 min after i.v. injection,1.88 ± 0.90 %ID/organ
same,"Injected dose/organ (%), Testis",[3]; 5 min after i.v. injection,0.32 ± 0.06 %ID/organ
same,"Injected dose/organ (%), Urine",[3]; 5 min after i.v. injection,3.42 ± 1.82 %ID/organ
same,"Injected dose/g tissue (%), Blood",[3]; 15 min after i.v. injection,0.72 ± 0.23 %ID/g
same,"Injected dose/g tissue (%), Bone",[3]; 15 min after i.v. injection,1.29 ± 0.18 %ID/g
same,"Injected dose/g tissue (%), Brain",[3]; 15 min after i.v. injection,4.83 ± 0.21 %ID/g
same,"Injected dose/g tissue (%), Heart",[3]; 15 min after i.v. injection,1.93 ± 0.18 %ID/g
same,"Injected dose/g tissue (%), Kidney",[3]; 15 min after i.v. injection,11.36 ± 1.39 %ID/g
same,"Injected dose/g tissue (%), Large intestine",[3]; 15 min after i.v. injection,1.59 ± 0.62 %ID/g
same,"Injected dose/g tissue (%), Liver",[3]; 15 min after i.v. injection,6.07 ± 1.10 %ID/g
same,"Injected dose/g tissue (%), Lung",[3]; 15 min after i.v. injection,7.97 ± 0.89 %ID/g
same,"Injected dose/g tissue (%), Muscle",[3]; 15 min after i.v. injection,1.22 ± 0.10 %ID/g
same,"Injected dose/g tissue (%), Pancreas",[3]; 15 min after i.v. injection,8.55 ± 1.10 %ID/g
same,"Injected dose/g tissue (%), Small intestine",[3]; 15 min after i.v. injection,3.29 ± 0.83 %ID/g
same,"Injected dose/g tissue (%), Spleen",[3]; 15 min after i.v. injection,4.45 ± 0.69 %ID/g
same,"Injected dose/g tissue (%), Stomach",[3]; 15 min after i.v. injection,4.51 ± 1.35 %ID/g
same,"Injected dose/g tissue (%), Testis",[3]; 15 min after i.v. injection,1.63 ± 0.16 %ID/g
